{
  "source": "patent US11938220B2",
  "about": "“Sustained-release anesthetic compositions and methods of preparation thereof” (TLC Biopharmaceuticals, Inc., priority 2018, dated 2024)",
  "tested_on": "Sprague-Dawley rats after paw incision",
  "test": "Anesthetic effect in a paw incision rat model (Von Frey, 50% paw withdrawal threshold)",
  "assay_type": "in vivo",
  "settings": "intra-plantar injection after paw incision, 1.9 mg ropivacaine articles, 1.33 mg ER Bupivacaine per incision, 0.5 hour after injection",
  "source_text": "FIG. 1A is a graph depicting 50% paw withdrawal threshold by a Von Frey test; wherein an anesthetic composition in accordance with the present disclosure (Ropivacaine composition) is our test article and ropivacaine injectable solution (unformulated ropivacaine) and commercial extended release liposomal bupivacaine (ER Bupivacaine) are used as reference articles. Saline, Ropivacaine composition, Ropivacaine injectable solution, and ER Bupivacaine were intra-plantarly administered after paw incision; the error bars represent the standard error of mean (SEM); and *:P<0.05 when compared to ER Bupivacaine group; BBL=Before surgery baseline; ABL=After surgery baseline.\nFIG. 1B is a graph depicting the percentage of maximum possible effects (% MPE), calculated from the 50% paw withdrawal threshold using the formula % MPE=(Thresholdaftertreatment−ABL)/(BBL−ABL)×100%; wherein the error bars represent the standard error of mean (SEM); *:P<0.05 when compared to ER Bupivacaine group. MPE over 30% is considered effective;\nSprague-Dawley rats were used for evaluating the anesthetic efficacy after paw incision as described in Pain. 1996 March; 64(3):493-501. […]\nBefore surgery baselines (BBL) of 27 rats were measured −1 to −3 days prior to surgery; after surgery baselines (ABL) of 27 rats were measured 30 minutes after surgery. […]",
  "data": [
    {"molecule": "CCCN1CCCC[C@H]1C(=O)Nc1c(C)cccc1C", "note": "[unformulated ropivacaine, ropivacaine]", "values": [
      {"measurement": "50% paw withdrawal threshold at T=0.5 hour", "value": 11.47, "unit": "g"}
    ]}
  ]
}
